{"source": "patent US11773373B2", "about": "“Method for amplifying CD8+T cells and cell subpopulations thereof in-vitro” (Shanghai Innovative Chang'An Biological Technology Co., Ltd., priority 2017, dated 2023)", "key": {"[1]": {"system": "effector memory T cells (TEM)", "experiment": "Proliferation of the effector memory subpopulation of CD8+ T cells of HIV-1 infected individuals", "assay_type": "cell-based, human", "settings": "7 days", "description": "(§1) 1. Peripheral blood mononuclear cells (PBMC) of HIV-1 infected individuals were isolated.\n(§2) 2. CD8+ T cells were sorted using an EasySep™ Negative Selection Human CD8+ T cell Enrichment kit (Stemcell: 19053).\n(§3) 3. The sorted CD8 cells were stained using Cell Proliferation Dye eFluor 670 (ebioscience: 65-0840-90).\n(§4) 4. The cells were placed in a 96-well U-shaped bottom plate with 1×10^5 cells per well.\n(§5) 5. The following stimulants and TLR agonists (invivoGen: tlr-kit1hw, human TLR1-9 Agonist KIT) were added in groups:\n(§6) (The anti-human CD3 antibody and the anti-human CD28 antibody in the form of coated magnetic beads (CELLection Pan Mouse IgG Kit, Invitrogen: 11531D) were used to stimulate the cells, wherein the ratio of the cells to the magnetic beads was 1:1)\n(§7) 6. The cells were cultured in the 96-well U-shaped bottom plate, and cultured in a cell incubator for 7 days.\n(§8) 7. The cells were labeled with antibodies CD8 (BD: 561423), CD45RA (eBioscience: 25-0458-42) and CCR7 (eBioscience: 17-1979-42), and the influence of different TLR agonists on the proliferation of CD8+ T subpopulations (TNaive: Naive T cells, TCM: central memory T cells, TEM: effector memory T cells) was detected by a flow cytometer."}, "[2]": {"system": "effector memory T cells (TEM)", "experiment": "Proliferation of the effector memory subpopulation of CD8+ T cells of healthy subjects", "assay_type": "cell-based", "settings": "in combination with anti-human CD3 antibody, compared with anti-human CD3 beads alone, 7 days", "experimental": "(§9) 1. Peripheral blood mononuclear cells (PBMC) of healthy subjects were isolated.\n(§10) 2. CD8+ T cells were sorted using an EasySep™ Negative Selection Human CD8+ T cell Enrichment kit (stem cell: 19053).\nas §3, §4, §5\n(§11) (The anti-human CD3 antibody used was magnetic beads coated with the antibody (CELLection Pan Mouse IgG Kit, Invitrogen: 11531D), wherein the ratio of the cells to the magnetic beads was 1:1)\nas §7\nas §8, with “by” for “by a”, “cytometry.” for “cytometer.”"}, "[3]": {"system": "central memory CD8+ T cells (TCM)", "experiment": "Proliferation of the central memory subpopulation of CD8+ T cells of HIV-1 infected individuals", "assay_type": "cell-based, human", "settings": "7 days", "description": "as §1, §2, §3, §4, §5, §6, §7, §8"}, "CD8+ T cells": {"system": "CD8+ T cells", "experiment": "Proliferation of sorted CD8+ T cells of healthy subjects (eFluor 670 dye, flow cytometry, 7 days)", "assay_type": "cell-based", "settings": "in combination with anti-human CD3 antibody, compared with magnetic beads coated with anti-human CD3 antibody alone", "description": "1. Peripheral blood mononuclear cells (PBMC) of healthy subjects were isolated according to Example 1.\nas §2, §3, §4, §5\n(The anti-human CD3 antibody and the anti-human CD28 antibody used were magnetic beads coated with the antibodies (CELLection Pan Mouse IgG Kit, Invitrogen: 11531D), wherein the ratio of the cells to the magnetic beads was 1:1)\nas §7\n7. The proliferation of the CD8+ T cells was detected by a flow cytometer under the stimulation conditions of different TLR agonists. FIG. 1A is a diagram showing the proliferation of CD8 cells under the conditions of blank control (left panel) as well as an anti-human CD3 antibody and an anti-human CD28 antibody (right panel). FIG. 1B is a statistical chart showing the proliferation proportion of CD8 cells under different stimulation conditions."}, "[4]": {"system": "central memory CD8+ T cells (TCM)", "experiment": "Proliferation of the central memory subpopulation of CD8+ T cells of healthy subjects", "assay_type": "cell-based", "settings": "in combination with anti-human CD3 antibody, compared with anti-human CD3 beads alone, 7 days", "experimental": "as §9, §10, §3, §4, §5, §11, §7\nas §8, with “by” for “by a”, “cytometry.” for “cytometer.”"}, "[5]": {"settings": "added to anti-human CD3/28 beads, compared with anti-human CD3/28 beads"}, "[6]": {"settings": "added to anti-human CD3 beads, compared with anti-human CD3 beads alone"}}, "data": [{"molecule": "FSL-1", "values": [{"measurement": "proliferation of effector memory T cells (TEM)", "setting": "[1]; [5]", "result": "further enhanced"}, {"measurement": "proliferation of effector memory T cells (TEM)", "setting": "[1]; [6]", "result": "more effectively stimulated"}, {"measurement": "proliferation of effector memory T cells (TEM)", "setting": "[2]", "result": "effectively stimulated"}, {"measurement": "proliferation of central memory CD8+ T cells (TCM)", "setting": "[3]; [5]", "result": "further enhanced"}, {"measurement": "proliferation of central memory CD8+ T cells (TCM)", "setting": "[3]; [6]", "result": "more effectively stimulated"}, {"measurement": "proliferation of CD8+ T cells", "setting": "CD8+ T cells", "result": "effectively stimulated"}, {"measurement": "proliferation of central memory CD8+ T cells (TCM)", "setting": "[4]", "result": "effectively stimulated"}]}, {"molecule": "Flagellin: TLR5 agonist, S. typhimurium Flagellin (invivoGen: tlrl-epstfla-5) (protein, UniProt P06179 2-495, looked up) Flagellin: AQVINTNSLSLLTQNNLNKSQSALGTAIERLSSGLRINSAKDDAAGQAIANRFTANIKGLTQASRNANDGISIAQTTEGALNEINNNLQRVRELAVQSANSTNSQSDLDSIQAEITQRLNEIDRVSGQTQFNGVKVLAQDNTLTIQVGANDGETIDIDLKQINSQTLGLDTLNVQQKYKVSDTAATVTGYADTTIALDNSTFKASATGLGGTDQKIDGDLKFDDTTGKYYAKVTVTGGTGKDGYYEVSVDKTNGEVTLAGGATSPLTGGLPATATEDVKNVQVANADLTEAKAALTAAGVTGTASVVKMSYTDNNGKTIDGGLAVKVGDDYYSATQNKDGSISINTTKYTADDGTSKTALNKLGGADGKTEVVSIGGKTYAASKAEGHNFKAQPDLAEAAATTTENPLQKIDAALAQVDTLRSDLGAVQNRFNSAITNLGNTVNNLTSARSRIEDSDYATEVSNMSRAQILQQAGTSVLAQANQVPQNVLSLLR", "values": [{"measurement": "proliferation of effector memory T cells (TEM)", "setting": "[1]; [5]", "result": "further enhanced"}, {"measurement": "proliferation of effector memory T cells (TEM)", "setting": "[1]; [6]", "result": "more effectively stimulated"}, {"measurement": "proliferation of effector memory T cells (TEM)", "setting": "[2]", "result": "effectively stimulated"}, {"measurement": "proliferation of central memory CD8+ T cells (TCM)", "setting": "[3]; [5]", "result": "further enhanced"}, {"measurement": "proliferation of central memory CD8+ T cells (TCM)", "setting": "[3]; [6]", "result": "more effectively stimulated"}, {"measurement": "proliferation of CD8+ T cells", "setting": "CD8+ T cells", "result": "effectively stimulated"}, {"measurement": "proliferation of central memory CD8+ T cells (TCM)", "setting": "[4]", "result": "effectively stimulated"}]}]}
